Patent publication US4410516A, “1-N(αHydroxy-ω-aminoalkanoyl) derivatives of 5,3',4'-trideoxy- or 5,3', 4'-trideoxy-6'-N- methyl- or 5, 3', 4',6"-tetradeoxykannamyci B and production thereof” (Zaidan Hojin Biseibutsu Kagaku Kenkyu Kai, priority 1981, dated 1983)
In brackets after ≈: the same amount, converted by molar mass. Where two headings read alike, the source gives them in different places.

Experiments:
[1] = tested on: Pseudomonas aeruginosa No. 12; assay: Minimum inhibitory concentration, serial dilution on nutrient agar; assay type: cell-based
[2] = tested on: Pseudomonas aeruginosa TI-13; assay: as above; assay type: cell-based
[3] = tested on: Escherichia coli K-12 ML 1410; assay: as above; assay type: cell-based
[4] = tested on: Escherichia coli K-12 R 388; assay: as above; assay type: cell-based; details: K12R388, 18 h
Bacillus anthracis = assay: microbe, parasite or virus in culture; assay type: cell-based; details: 18 h
[5] = tested on: Shigella dysenteriae JS 11910; assay: Minimum inhibitory concentration, serial dilution on nutrient agar; assay type: cell-based; details: JS11910, 18 h
[6] = tested on: Pseudomonas aeruginosa GN315; assay: as above; assay type: cell-based
Providencia 2991 = assay: as above; assay type: cell-based; details: 37° C., 18 hours incubation
[7] = tested on: Pseudomonas aeruginosa 99; assay: as above; assay type: cell-based
[8] = tested on: Salmonella enteritidis 1891; assay: as above; assay type: cell-based; details: Salmonella enterica
Escherichia coli JR255 = assay: as above; assay type: cell-based
Escherichia coli K-12 = assay: as above; assay type: cell-based
Providencia Pv 16 = assay: as above; assay type: cell-based; details: PV16, 37° C., 18 hours incubation
Shigella sonnei JS11746 = assay: as above; assay type: cell-based; details: 37° C., 18 hours incubation
Text: (§1) The minimum inhibitory concentration (mcg/ml) of 1-N-[(S)-4-amino-2-hydroxybutyryl]-5,3',4'-trideoxykanamycin B (abbreviated as AHB-trideoxyKMB), 1-N-[(RS)-3-amino-2-hydroxypropionyl]-5,3',4'-trideoxykanamycin B (abbreviated as AHP-trideoxy-KMB) and 1-N-[(S)-4-amino-2-hydroxybutyryl]-5,3',4',6"-tetradeoxykanamycin B (abbreviated as AHB-tetradeoxyKMB) of the formula (II) according to this invention as well as of the new compound 5,3',4',6"-tetradeoxykanamycin B (abbreviated as tetradeoxyKMB) of the formula (III) according to this invention against various microorganisms were determined according to serial dilution method on a nutrient agar medium at 37° C., the estimation being made after 18 hours incubation. For comparison purpose, the minimum inhibitory concentrations of habekacin were also determined in the same manner as stated above.
(§2) The minimum inhibitory concentrations (mcg/ml) of 1-N-[(S)-4-amino-2-hydroxybutyryl]-5,3',4'-trideoxy-6'-N-methylkanamycin B (abbreviated as AHB-trideoxyMKMB), 1-N-[(RS)-3-amino-2-hydroxypropionyl]-5,3',4'-trideoxy-6'-N-methylkanamycin B (abbreviated as AHP-trideoxyMKMB) and 1-N-[(S)-5-amino-2-hydroxyvaleryl]-5,3',4'-trideoxy-6'-N-methylkanamycin B (abbreviated as AHV-trideoxyMKMB) of the formula (IV) according to this invention as well as of the new compound 5,3',4'-trideoxy-6'-N-methylkanamycin B (abbreviated as trideoxyMKMB) of the formula (V) according to this invention against various microorganisms were determined according to serial dilution method on a nutrient agar medium at 37° C., the estimation being made after 18 hours incubation. For comparison purpose, the minimum inhibitory concentrations of 1-N-[(S)-4-amino-2-hydroxybutyryl]-3',4'-dideoxykanamycin B (ie. habekacin) were also determined in the same manner as stated above.

[9] = tested on: Shigella flexneri 4b JS11811; assay: as above; assay type: cell-based; details: 4BJS11811, 37° C., 18 hours incubation
Text: as §1, §2

[10] = tested on: Escherichia coli K-12 C 600R/35; assay: as above; assay type: cell-based; details: K12C600R/35, 37° C., 18 hours incubation
Text: as §1, §2

[11] = tested on: Escherichia coli K-12 ML 1630; assay: as above; assay type: cell-based; details: K12ML1630, 37° C., 18 hours incubation
Text: as §1, §2

[12] = tested on: Escherichia coli K-12 J5R 11-2; assay: as above; assay type: cell-based; details: K12J5R112, 37° C., 18 hours incubation
Text: as §1, §2

Serratia marcescens = assay: as above; assay type: cell-based; details: 37° C., 18 hours incubation
Sarcina lutea PCI 1001 = assay: as above; assay type: cell-based; details: Micrococcus luteus
Escherichia coli K-12 R5 = assay: as above; assay type: cell-based; details: K12R5, 18 h
[13] = tested on: Bacillus subtilis NRRL B-558; assay: as above; assay type: cell-based; details: NRRLB558, 37° C., 18 hours incubation
[14] = tested on: Klebsiella pneumoniae 22 #3038; assay: as above; assay type: cell-based
Escherichia coli W677 = assay: as above; assay type: cell-based
[15] = tested on: Escherichia coli K-12 ML 1410 R81; assay: as above; assay type: cell-based; details: 18 h
bacteria = details: in words, earlier work / other filings; cited from earlier work
[16] = NO.12, nutrient agar, 37° C., 18 hours incubation, read-out: MIC
[17] = TI13, nutrient agar, 37° C., 18 hours incubation, read-out: MIC
[18] = Pseudomonas aeruginosa, 99, nutrient agar, 37° C., 18 hours incubation, read-out: MIC
[19] = JR255, nutrient agar, 37° C., 18 hours incubation, read-out: MIC
[20] = K12, nutrient agar, 37° C., 18 hours incubation, read-out: MIC
[21] = PCI1001, nutrient agar, 37° C., 18 hours incubation, read-out: MIC
[22] = W677, nutrient agar, 37° C., 18 hours incubation, read-out: MIC
[23] = nutrient agar, 37° C., 18 hours incubation, read-out: MIC

| Compound | MIC [1, 16] [µg/mL] | MIC [2, 17] [µg/mL] | MIC [4] [µg/mL] | MIC (Bacillus anthracis) [µg/mL] | MIC [5] [µg/mL] | MIC (Providencia 2991) [µg/mL] | MIC [7, 18] [µg/mL] | MIC ([8]; 18 h) [µg/mL] | MIC (Escherichia coli JR255; [19]) [µg/mL] | MIC (Escherichia coli K-12; [20]) [µg/mL] | MIC (Providencia Pv 16) [µg/mL] | MIC (Shigella sonnei JS11746) [µg/mL] | MIC [9] [µg/mL] | MIC [10] [µg/mL] | MIC [11] [µg/mL] | MIC [12] [µg/mL] | MIC (Serratia marcescens) [µg/mL] | MIC (Sarcina lutea PCI 1001; [21]) [µg/mL] | MIC (Escherichia coli K-12 R5) [µg/mL] | MIC [13] [µg/mL] | also measured |
| --- | --- | --- | --- | --- | --- | --- | --- | --- | --- | --- | --- | --- | --- | --- | --- | --- | --- | --- | --- | --- | --- |
| NCC(O)C(=O)N[C@@H]1C[C@H](N)[C@@H](O[C@H]2O[C@H](CN)CC[C@H]2N)C[C@H]1O[C@H]1O[C@H](CO)[C@@H](O)[C@H](N)[C@H]1O (stereo partly drawn) [AHP-trideoxyKMB, 1-N-[(RS)-3-amino-2-hydroxypropionyl]-5,3',4'-trideoxykanamycin B] | 3.13 (≈ 5.99 µM) | 3.13 (≈ 5.99 µM) | 1.56 (≈ 2.99 µM) | < 0.2 | 6.25 (≈ 12 µM) | 25 (≈ 47.8 µM) | 3.13 (≈ 5.99 µM) | 6.25 (≈ 12 µM) | 1.56 (≈ 2.99 µM) | 1.56 (≈ 2.99 µM) | 25 (≈ 47.8 µM) | 6.25 (≈ 12 µM) | 6.25 (≈ 12 µM) | 1.56 (≈ 2.99 µM) | 3.13 (≈ 5.99 µM) | 1.56 (≈ 2.99 µM) | 25 (≈ 47.8 µM) | 0.78 (≈ 1.49 µM) | 100 (≈ 191 µM) | < 0.2 | MIC ([3]; K12ML1410, nutrient agar, 37° C., 18 hours incubation, read-out: MIC): 1.56 µg/mL (≈ 2.99 µM); MIC ([6]; GN315, nutrient agar, 37° C., 18 hours incubation, read-out: MIC): 50 µg/mL (≈ 95.7 µM); MIC ([14]; 18 h): 6.25 µg/mL (≈ 12 µM); MIC (Escherichia coli W677; [22]): 1.56 µg/mL (≈ 2.99 µM) |
| CNC[C@@H]1CC[C@@H](N)[C@@H](O[C@H]2C[C@@H](O[C@H]3O[C@H](CO)[C@@H](O)[C@H](N)[C@H]3O)[C@H](NC(=O)C(O)CN)C[C@@H]2N)O1 (stereo partly drawn) [AHP-trideoxyMKMB, 1-N-[(RS)-3-amino-2-hydroxypropionyl]-5,3',4'-trideoxy-6'-N-methylkanamycin B] | – | – | 1.56 (≈ 2.91 µM) | < 0.2 | 6.25 (≈ 11.6 µM) | 50 (≈ 93.2 µM) | 12.5 (≈ 23.3 µM) | 6.25 (≈ 11.6 µM) | – | – | 50 (≈ 93.2 µM) | 6.25 (≈ 11.6 µM) | 3.13 (≈ 5.83 µM) | 1.56 (≈ 2.91 µM) | 3.13 (≈ 5.83 µM) | 3.13 (≈ 5.83 µM) | 12.5 (≈ 23.3 µM) | 0.78 (≈ 1.45 µM) | 12.5 (≈ 23.3 µM) | 0.39 (≈ 0.727 µM) | MIC ([1]; NO.12, 18 h): 3.13 µg/mL (≈ 5.83 µM); MIC ([2]; TI13, 18 h): 3.13 µg/mL (≈ 5.83 µM); MIC ([3]; K12ML1410, 18 h): 3.13 µg/mL (≈ 5.83 µM); MIC ([6]; GN315, 18 h): 3.13 µg/mL (≈ 5.83 µM); MIC [15]: 3.13 µg/mL (≈ 5.83 µM); MIC (Escherichia coli JR255; JR255, 18 h): 3.13 µg/mL (≈ 5.83 µM); MIC (Escherichia coli K-12; K12, 18 h): 3.13 µg/mL (≈ 5.83 µM); MIC ([14]; 18 h): 3.13 µg/mL (≈ 5.83 µM); MIC (Escherichia coli W677; W677, 18 h): 3.13 µg/mL (≈ 5.83 µM) |
| NCC[C@H](O)C(=O)N[C@@H]1C[C@H](N)[C@@H](O[C@H]2O[C@H](CN)CC[C@H]2N)[C@H](O)[C@H]1O[C@H]1O[C@H](CO)[C@@H](O)[C@H](N)[C@H]1O [Habekacin, 1-N-[(S)-4-amino-2-hydroxybutyryl]-3',4'-dideoxykanamycin B, reference compound] | 3.13 (≈ 5.66 µM) | 3.13 (≈ 5.66 µM) | 1.56 (≈ 2.82 µM) | < 0.2 | 12.5 (≈ 22.6 µM) | 50 (≈ 90.5 µM) | – | – | 3.13 (≈ 5.66 µM) | 3.13 (≈ 5.66 µM) | 25 (≈ 45.2 µM) | 6.25 (≈ 11.3 µM) | 6.25 (≈ 11.3 µM) | 1.56 (≈ 2.82 µM) | 3.13 (≈ 5.66 µM) | 1.56 (≈ 2.82 µM) | 50 (≈ 90.5 µM) | – | 100 (≈ 181 µM) | < 0.2 | MIC ([3]; K12ML1410, 18 h): 6.25 µg/mL (≈ 11.3 µM); MIC ([6]; GN315, 18 h): 6.25 µg/mL (≈ 11.3 µM); MIC ([7]; Pseudomonas aeruginosa, 99, 18 h): 6.25 µg/mL (≈ 11.3 µM); MIC [8, 23]: 3.13 µg/mL (≈ 5.66 µM); MIC (Sarcina lutea PCI 1001; PCI1001, 18 h): 1.56 µg/mL (≈ 2.82 µM); MIC [14, 23]: 3.13 µg/mL (≈ 5.66 µM); MIC (Escherichia coli W677; [22]): 3.13 µg/mL (≈ 5.66 µM); antibacterial activity (bacteria): effective against dibekacin-resistant bacteria |
